Experimental data: patent publication US20260007681A1, “INDOLE DERIVATIVES AS ESTROGEN RECEPTOR DEGRADERS” (REGENTS OF THE UNIVERSITY OF MICHIGAN, priority 2022, published 2026)

biological target: ER (Homo sapiens (Human), UniProt P03372); assay: Western blot analysis (Compounds B1-B278); format: cell-based; conditions: ER degradation by traditional Western blot; DC50 classes
Outline: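 Relative target-protein levels come from densitometry of immunoblots, normalized to GAPDH. Lysates from treated cells were prepared in RIPA buffer (pH 7.6) containing protease inhibitors, and equal protein amounts, checked by BCA, were separated on 10% gels and blotted onto PVDF.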

Chain of ER (P03372 whole entry): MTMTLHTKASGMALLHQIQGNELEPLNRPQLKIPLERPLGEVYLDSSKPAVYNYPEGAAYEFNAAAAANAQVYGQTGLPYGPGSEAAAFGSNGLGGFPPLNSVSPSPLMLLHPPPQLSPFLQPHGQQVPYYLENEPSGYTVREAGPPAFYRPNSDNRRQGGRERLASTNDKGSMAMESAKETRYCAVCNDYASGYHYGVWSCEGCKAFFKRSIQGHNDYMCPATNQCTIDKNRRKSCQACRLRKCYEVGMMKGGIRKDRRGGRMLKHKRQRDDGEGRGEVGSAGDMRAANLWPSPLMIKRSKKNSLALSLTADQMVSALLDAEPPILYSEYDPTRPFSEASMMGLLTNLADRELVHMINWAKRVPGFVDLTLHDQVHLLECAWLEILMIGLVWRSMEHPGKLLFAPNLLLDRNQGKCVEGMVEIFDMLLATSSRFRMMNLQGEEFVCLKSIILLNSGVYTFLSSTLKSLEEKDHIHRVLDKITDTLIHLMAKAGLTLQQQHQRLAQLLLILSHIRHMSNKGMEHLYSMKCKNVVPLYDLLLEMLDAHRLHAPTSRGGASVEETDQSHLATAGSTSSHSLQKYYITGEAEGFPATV

SMILES	Traditional Western Degradation Potency
C[C@@H]1Cc2c([nH]c3ccccc23)[C@H](c2c(F)cc(C(=O)N3CCC4(CCC(CN5Cc6cc7c(cc6C5)C(=O)N(C5CCC(=O)NC5=O)C7=O)CC4)CC3)cc2F)N1CC(F)F (stereo partly drawn) [Compound B100, 6-((3-(4-((1S,3R)-2-(2,2-difluoroethyl)-3-methyl-2,3,4,9-tetrahydro-1H-pyrido[3,4-b]indol-1-yl)-3,5-difluorobenzoyl)-3-azaspiro[5.5]undecan-9-yl)methyl)-2-(2,6-dioxopiperidin-3-yl)-6,7-dihydropyrrolo[3,4-f]isoindole-1,3(2H,5H)-dione]	C (“C”: >100 nM)
C[C@@H]1Cc2c([nH]c3ccccc23)[C@@H](c2c(F)cc(N3CCC(N4CCC(C(=O)N5Cc6cc7c(cc6C5)C(=O)N(C5CCC(=O)NC5=O)C7=O)CC4)C3)cc2F)N1CC(F)F (stereo partly drawn) [Compound B50, 6-(1-(1-(4-((1R,3R)-2-(2,2-difluoroethyl)-3-methyl-2,3,4,9-tetrahydro-1H-pyrido[3,4-b]indol-1-yl)-3,5-difluorophenyl)pyrrolidin-3-yl)piperidine-4-carbonyl)-2-(2,6-dioxopiperidin-3-yl)-6,7-dihydropyrrolo[3,4-f]isoindole-1,3(2H,5H)-dione]	C (“C”: >100 nM)
C[C@@H]1Cc2c([nH]c3ccccc23)[C@@H](c2c(F)cc(N3CCC(C(=O)N4CCC(N5Cc6cc7c(cc6C5)C(=O)N(C5CCC(=O)NC5=O)C7=O)CC4)CC3)cc2F)N1CC(F)(F)F (stereo partly drawn) [Compound B201, 6-(1-(1-(3,5-difluoro-4-((1R,3R)-3-methyl-2-(2,2,2-trifluoroethyl)-2,3,4,9-tetrahydro-1H-pyrido[3,4-b]indol-1-yl)phenyl)piperidine-4-carbonyl)piperidin-4-yl)-2-(2,6-dioxopiperidin-3-yl)-6,7-dihydropyrrolo[3,4-f]isoindole-1,3(2H,5H)-dione]	B (“B”: 10-100 nM)
C[C@@H]1Cc2c([nH]c3ccccc23)[C@@H](c2c(F)cc(N3CCC(C(=O)N4CCC(N5Cc6cc7c(cc6C5)C(=O)N(C5CCC(=O)NC5=O)C7=O)CC4)CC3)cc2F)N1CC(F)F (stereo partly drawn) [Compound B54, 6-(1-(1-(4-((1R,3R)-2-(2,2-difluoroethyl)-3-methyl-2,3,4,9-tetrahydro-1H-pyrido[3,4-b]indol-1-yl)-3,5-difluorophenyl)piperidine-4-carbonyl)piperidin-4-yl)-2-(2,6-dioxopiperidin-3-yl)-6,7-dihydropyrrolo[3,4-f]isoindole-1,3(2H,5H)-dione]	A (“A”: <10 nM)
C[C@@H]1Cc2c([nH]c3ccccc23)[C@@H](c2c(F)cc(N3CC4(CCN(CC(=O)N5Cc6cc7c(cc6C5)C(=O)N(C5CCC(=O)NC5=O)C7)C4)C3)cc2F)N1CC(F)F (stereo partly drawn) [Compound B16, 3-(6-(2-(2-(4-((1R,3R)-2-(2,2-difluoroethyl)-3-methyl-2,3,4,9-tetrahydro-1H-pyrido[3,4-b]indol-1-yl)-3,5-difluorophenyl)-2,6-diazaspiro[3.4]octan-6-yl)acetyl)-1-oxo-3,5,6,7-tetrahydropyrrolo[3,4-f]isoindol-2(1H)-yl)piperidine-2,6-dione]	A (“A”: <10 nM)
C[C@@H]1Cc2c([nH]c3ccccc23)[C@@H](c2c(F)cc(N3CC4(CCN(CC(=O)N5Cc6cc7c(cc6C5)C(=O)N(C5CCC(=O)NC5=O)C7)CC4)C3)cc2F)N1CC(F)F (stereo partly drawn) [Compound B38, 3-(6-(2-(2-(4-((1R,3R)-2-(2,2-difluoroethyl)-3-methyl-2,3,4,9-tetrahydro-1H-pyrido[3,4-b]indol-1-yl)-3,5-difluorophenyl)-2,7-diazaspiro[3.5]nonan-7-yl)acetyl)-1-oxo-3,5,6,7-tetrahydropyrrolo[3,4-f]isoindol-2(1H)-yl)piperidine-2,6-dione]	A (“A”: <10 nM)
C[C@@H]1Cc2c([nH]c3ccccc23)[C@@H](c2c(F)cc(N3CCC4(CC3)CC(C(=O)N3CCC(N5Cc6cc7c(cc6C5)C(=O)N(C5CCC(=O)NC5=O)C7)CC3)C4)cc2F)N1CC(F)F (stereo partly drawn) [Compound B41, 3-(6-(1-(7-(4-((1R,3R)-2-(2,2-difluoroethyl)-3-methyl-2,3,4,9-tetrahydro-1H-pyrido[3,4-b]indol-1-yl)-3,5-difluorophenyl)-7-azaspiro[3.5]nonane-2-carbonyl)piperidin-4-yl)-1-oxo-3,5,6,7-tetrahydropyrrolo[3,4-f]isoindol-2(1H)-yl)piperidine-2,6-dione]	A (“A”: <10 nM)
C[C@@H]1Cc2c([nH]c3ccccc23)[C@@H](c2c(F)cc(-c3ncc(C(=O)N4CCC(N5Cc6cc7c(cc6C5)C(=O)N(C5CCC(=O)NC5=O)C7=O)CC4)cn3)cc2F)N1CC(F)F (stereo partly drawn) [Compound B92, 6-(1-(2-(4-((1R,3R)-2-(2,2-difluoroethyl)-3-methyl-2,3,4,9-tetrahydro-1H-pyrido[3,4-b]indol-1-yl)-3,5-difluorophenyl)pyrimidine-5-carbonyl)piperidin-4-yl)-2-(2,6-dioxopiperidin-3-yl)-6,7-dihydropyrrolo[3,4-f]isoindole-1,3(2H,5H)-dione]	A (“A”: <10 nM)
C[C@@H]1Cc2c([nH]c3ccccc23)[C@@H](c2c(F)cc(C3CCN(C(=O)[C@H]4CC[C@H](N5Cc6cc7c(cc6C5)C(=O)N(C5CCC(=O)NC5=O)C7=O)CC4)CC3)cc2F)N1CC(F)F (stereo partly drawn) [Compound B106, 6-((1R,4r)-4-(4-(4-((1R,3R)-2-(2,2-difluoroethyl)-3-methyl-2,3,4,9-tetrahydro-1H-pyrido[3,4-b]indol-1-yl)-3,5-difluorophenyl)piperidine-1-carbonyl)cyclohexyl)-2-(2,6-dioxopiperidin-3-yl)-6,7-dihydropyrrolo[3,4-f]isoindole-1,3(2H,5H)-dione]	A (“A”: <10 nM)
C[C@@H]1Cc2c([nH]c3ccccc23)[C@@H](c2c(F)cc(N3CC(C(=O)N4CCC(N5Cc6cc7c(cc6C5)C(=O)N(C5CCC(=O)NC5=O)C7=O)CC4)C3)cc2F)N1CC(F)F (stereo partly drawn) [Compound B62, 6-(1-(1-(4-((1R,3R)-2-(2,2-difluoroethyl)-3-methyl-2,3,4,9-tetrahydro-1H-pyrido[3,4-b]indol-1-yl)-3,5-difluorophenyl)azetidine-3-carbonyl)piperidin-4-yl)-2-(2,6-dioxopiperidin-3-yl)-6,7-dihydropyrrolo[3,4-f]isoindole-1,3(2H,5H)-dione]	A (“A”: <10 nM)
C[C@@H]1Cc2c([nH]c3ccccc23)[C@@H](c2c(F)cc(N3CCC(N4CCN(CC(=O)N5Cc6cc7c(cc6C5)C(=O)N(C5CCC(=O)NC5=O)C7)CC4)CC3)cc2F)N1CC(F)F (stereo partly drawn) [Compound B36, 3-(6-(2-(4-(1-(4-((1R,3R)-2-(2,2-difluoroethyl)-3-methyl-2,3,4,9-tetrahydro-1H-pyrido[3,4-b]indol-1-yl)-3,5-difluorophenyl)piperidin-4-yl)piperazin-1-yl)acetyl)-1-oxo-3,5,6,7-tetrahydropyrrolo[3,4-f]isoindol-2(1H)-yl)piperidine-2,6-dione]	A (“A”: <10 nM)

Continued, values first:

Traditional Western Degradation Potency	SMILES
B (“B”: 10-100 nM)	C[C@@H]1Cc2c([nH]c3ccccc23)[C@@H](c2cnc(N3CCC(CN4CCC(N5Cc6cc7c(cc6C5)C(=O)N(C5CCC(=O)NC5=O)C7=O)CC4)CC3)nc2)N1CC(F)(F)F (stereo partly drawn) [Compound B218, 2-(2,6-dioxopiperidin-3-yl)-6-(1-((1-(5-((1R,3R)-3-methyl-2-(2,2,2-trifluoroethyl)-2,3,4,9-tetrahydro-1H-pyrido[3,4-b]indol-1-yl)pyrimidin-2-yl)piperidin-4-yl)methyl)piperidin-4-yl)-6,7-dihydropyrrolo[3,4-f]isoindole-1,3(2H,5H)-dione]
B (“B”: 10-100 nM)	C[C@@H]1Cc2c([nH]c3ccccc23)[C@@H](c2ccc(N3CCC(CN4CCC(N5Cc6cc7c(cc6C5)C(=O)N(C5CCC(=O)NC5=O)C7=O)CC4)CC3)cc2)N1CC(F)F (stereo partly drawn) [Compound B226, 6-(1-((1-(4-((1R,3R)-2-(2,2-difluoroethyl)-3-methyl-2,3,4,9-tetrahydro-1H-pyrido[3,4-b]indol-1-yl)phenyl)piperidin-4-yl)methyl)piperidin-4-yl)-2-(2,6-dioxopiperidin-3-yl)-6,7-dihydropyrrolo[3,4-f]isoindole-1,3(2H,5H)-dione]
C (“C”: >100 nM)	C[C@@H]1Cc2c([nH]c3ccccc23)[C@@H](c2c(F)cc(N3CC(C(=O)N4CCC(N5Cc6cc7c(cc6C5)C(=O)N(C5CCC(=O)NC5=O)C7=O)CC4)C3)cc2F)N1CC(F)F (stereo partly drawn) [Compound B209, 6-(1-(1-(4-((1R,3R)-2-(2,2-difluoroethyl)-3-methyl-2,3,4,9-tetrahydro-1H-pyrido[3,4-b]indol-1-yl)-3,5-difluorophenyl)azetidine-3-carbonyl)piperidin-4-yl)-2-(2,6-dioxopiperidin-3-yl)-6,7-dihydropyrrolo[3,4-f]isoindole-1,3(2H,5H)-dione]
B (“B”: 10-100 nM)	C[C@@H]1Cc2c([nH]c3ccccc23)[C@@H](c2ccc(C3=CCC(C(=O)N4CCC(N5Cc6cc7c(cc6C5)C(=O)N(C5CCC(=O)NC5=O)C7=O)CC4)CC3)cc2F)N1CC(C)(C)F (stereo partly drawn) [Compound B245, 2-(2,6-dioxopiperidin-3-yl)-6-(1-(3′-fluoro-4′-((1R,3R)-2-(2-fluoro-2-methylpropyl)-3-methyl-2,3,4,9-tetrahydro-1H-pyrido[3,4-b]indol-1-yl)-2,3,4,5-tetrahydro-[1,1′-biphenyl]-4-carbonyl)piperidin-4-yl)-6,7-dihydropyrrolo[3,4-f]isoindole-1,3(2H,5H)-dione]
A (“A”: <10 nM)	C[C@@H]1Cc2c([nH]c3ccccc23)[C@@H](c2cnc(N3CCC(C(=O)N4CCC(N5Cc6cc7c(cc6C5)C(=O)N(C5CCC(=O)NC5=O)C7=O)CC4)CC3)nc2)N1CC(F)(F)F (stereo partly drawn) [Compound B219, 2-(2,6-dioxopiperidin-3-yl)-6-(1-(1-(5-((1R,3R)-3-methyl-2-(2,2,2-trifluoroethyl)-2,3,4,9-tetrahydro-1H-pyrido[3,4-b]indol-1-yl)pyrimidin-2-yl)piperidine-4-carbonyl)piperidin-4-yl)-6,7-dihydropyrrolo[3,4-f]isoindole-1,3(2H,5H)-dione]
